Measured values: ChEMBL document CHEMBL4184098, “Discovery of novel benzo[b]thiophene tetrazoles as non-carboxylate GPR40 agonists” (Bioorg Med Chem Lett, 2018)

What was measured:
[1] = Volume of distribution at steady state in rat at 10 mg/kg, po or 2 mg/kg, iv; format: ADME, organism-based; conditions: in vivo, read-out: Vdss
[2] = Cmax in rat at 10 mg/kg, po; format: ADME, organism-based; design: dose 10 mg/kg, route oral; conditions: in vivo
[3] = Oral bioavailability in rat at 10 mg/kg; format: ADME, organism-based; conditions: in vivo
[4] = Retention time of compound by LC-MS/MS analysis; format: physicochemical
[5] = Plasma concentration in Sprague-Dawley rat at 10 mg/kg, po administered 40 mins prior to glucose-challenge measured at 160 mins post last dose during OGTT assay; format: ADME, organism-based
[6] = Plasma concentration in Sprague-Dawley rat at 1 mg/kg, po administered 40 mins prior to glucose-challenge measured at 160 mins post last dose during OGTT assay; format: ADME, organism-based
[7] = Plasma concentration in Sprague-Dawley rat at 10 mg/kg, po administered 40 mins prior to glucose-challenge measured at 155 mins post last dose during OGTT assay; format: ADME, organism-based
[8] = Plasma concentration in Sprague-Dawley rat at 10 mg/kg, po administered 40 mins prior to glucose-challenge measured at 95 mins post last dose during OGTT assay; format: ADME, organism-based
[9] = Plasma concentration in Sprague-Dawley rat at 10 mg/kg, po administered 40 mins prior to glucose-challenge measured at 35 mins post last dose during OGTT assay; format: ADME, organism-based

| SMILES | Vd [1] [L/kg] | Cmax [2] [ng/mL] | bioavailability [3] [%] | Retention_time [4] [min] | concentration at 160 min [5] [µM] | concentration at 160 min [6] [nM] | concentration at 155 min [7] [µM] | concentration at 95 min [8] [µM] | concentration at 35 min [9] [µM] |
| --- | --- | --- | --- | --- | --- | --- | --- | --- | --- |
| CC#C[C@@H](Cc1nnn[nH]1)c1ccc(OCc2ccc3scc(-c4ccc(OCCCS(C)(=O)=O)cc4C)c3c2)cc1 | 5.1 | 417 | 56.8 |  |  |  |  |  |  |
| CC#C[C@@H](Cc1nnn[nH]1)c1ccc(OCc2ccc3scc(-c4ccccc4C)c3c2)cc1 | 1.5 | 576 | 43.2 | 26.64 | 1.85 | 320 |  |  |  |
| CC#C[C@@H](Cc1nnn[nH]1)c1ccc(OCc2ccc3sc(C(F)(F)F)c(-c4ccc(OCCOC)cc4C)c3c2)cc1 |  |  |  |  |  |  | 4.41 | 3.9 | 5.66 |
| CC#C[C@@H](Cc1nnn[nH]1)c1ccc(OCc2ccc3scc(-c4ccc(OCC5(C)CS(=O)(=O)C5)cc4C)c3c2)cc1 | 5.9 | 356 | 50.3 |  |  |  |  |  |  |
| CC#C[C@@H](Cc1nnn[nH]1)c1ccc(OCc2ccc3sc(F)c(-c4ccccc4C)c3c2)cc1 | 2.2 | 1590 | 62.3 |  | 3.74 |  |  |  |  |
| CC#C[C@@H](Cc1nnn[nH]1)c1ccc(OCc2ccc3sc(Cl)c(-c4ccccc4C)c3c2)cc1 | 0.8 | 4220 | 72 |  | 8.09 |  |  |  |  |
| CC#C[C@@H](Cc1nnn[nH]1)c1ccc(OCc2ccc3sc(C(F)(F)F)c(-c4ccccc4C)c3c2)cc1 | 1.1 | 2520 | 82.1 |  | 7.42 |  |  |  |  |
